In patent US7786106B2, “Substituted benzene derivatives or salts thereof” (Astellas Pharma Inc., priority 2003, dated 2010):
Where a name gives a salt, the structure may show the parent alone.

Tests used:
[1] = test system: extrinsic coagulation time (PT); experiment: Ex vivo measurement of coagulation time in cynomolgus monkeys (oral administration), extrinsic coagulation time (PT); conditions: for Test on Measurement of Coagulation Time in Cynomolgus Monkeys (PT): relative ratio of coagulation time to control, blood collection point with the most potent extension
Description: 4) Test on Ex Vivo Measurement of Coagulation Time in Cynomolgus Monkeys (Oral Administration)
A drug (5 mg/ml or 0.5 mg/ml) which was dissolved (suspended) in 0.5% methylcellulose was compulsorily administered per os at a dose of 2 ml/kg (10 mg/kg or 1 mg/kg) via an oral gavage after blood collection before the administration of the drug to a male cynomolgus monkeys (body weight around 4 kg) fasted for 12 hours or longer and, after 1, 2, 4, 6 and 8 hour(s), 2 ml of blood was collected from femoral vein using 1/10 volume of 3.8% sodium citrate and blood plasma was separated by means of centrifugal treatment of 3,000 rpm for 10 minutes. Using the resulting blood plasma, extrinsic coagulation time (PT) and intrinsic coagulation time (APTT) were measured in accordance with the following methods a) and b). The experiment was carried out under non-anesthetization.
a) Extrinsic Coagulation Time (PT)
Ortho Brain Thromboplastin (54 mg/vial; a freeze-dried preparation; Ortho-Clinical Diagnostics) was dissolved in 2.5 ml of Milli-Q water and preliminarily warmed at 37° C. The above-separated blood plasma (50 μl) was warmed at 37° C. for 1 minute, 50 μl of the above-mentioned thromboplastin solution was added and the coagulation time was measured. KC10 of Amelung was used for the measurement of the coagulation time.

human factor Xa = molecular target: T1, human factor Xa (Homo sapiens, UniProt P00742); experiment: In vitro test on measurement of coagulation time by human activated blood coagulation factor X (human plasma); assay type: biochemical; conditions: for Test on Measurement of Coagulation Time by Human Activated Blood Coagulation Factor X (CT2): CT2 = concentration by which the coagulation time is prolonged 2-fold, human blood plasma; for anti-blood coagulation action (extension of coagulation time), in words: in vitro, human plasma
T1 construct: purchased Enzyme Research Labs
Description: 1) An In Vitro Test on Measurement of Coagulation Time by Human Activated Blood Coagulation Factor X
To 90 μl of human blood plasma were added 10 μl of a drug or a physiological saline and 50 μl of human factor Xa (Enzyme Research Labs), incubation was carried out at 30° C. for 3 minutes, 100 μl of 20 mM CaCl2 previously warmed at 37° C. were added and the time until coagulation was measured by a coagulo-meter (KC10 of Amelung). With regard to the human blood plasma, each 45 ml of blood were collected from vein of elbow of six healthy persons using a syringe in which 5 ml of 3.8% sodium citrate were contained and centrifuged at 4° C. for 15 minutes at 3,000 rpm and the separate blood plasma was pooled and frozen, then thawed before use. With regard to the human factor Xa, the concentration by which the coagulation time when a physiological saline solution (control) was added was about 30 to 40 seconds was selected. A CT2 value (concentration by which the coagulation time is prolonged to an extent of 2-fold) was determined by plotting the drug concentrations and relative value (fold) of the coagulation time to the control, followed by subjecting to linear regression.

T1 sequence (P00742 235-488 limits assumed): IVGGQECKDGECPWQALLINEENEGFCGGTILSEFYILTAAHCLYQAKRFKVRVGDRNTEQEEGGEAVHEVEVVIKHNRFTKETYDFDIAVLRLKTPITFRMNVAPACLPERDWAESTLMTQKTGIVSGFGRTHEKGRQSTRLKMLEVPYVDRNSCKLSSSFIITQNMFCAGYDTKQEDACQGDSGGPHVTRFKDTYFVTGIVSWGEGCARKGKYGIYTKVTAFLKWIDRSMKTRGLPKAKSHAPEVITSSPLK
T1 sequence (P00742 41-179 partner limits assumed): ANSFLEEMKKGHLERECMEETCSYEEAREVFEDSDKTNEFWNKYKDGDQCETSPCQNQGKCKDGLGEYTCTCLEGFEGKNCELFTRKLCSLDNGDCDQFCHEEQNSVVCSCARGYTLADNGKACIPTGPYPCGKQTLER

SMILES	Test on Measurement of Coagulation Time by Human Activated Blood Coagulation Factor X (CT2) (human factor Xa) [µM]	Test on Measurement of Coagulation Time in Cynomolgus Monkeys (PT) ([1]; 10 mg/kg per os)	anti-blood coagulation action (extension of coagulation time), in words (human factor Xa)	extending action for the coagulation time compared with control (Example 44 of WO 00/39118) ([1]; same dose as control (10 mg/kg), oral, cynomolgus monkeys)	Test on Measurement of Coagulation Time in Cynomolgus Monkeys (PT) ([1]; 1 mg/kg per os)
CC(=O)N[C@H]1[C@H](Oc2cc(Br)cc(C(=O)Nc3ccc(Cl)cn3)c2NC(=O)C2CCN(C(C)C)CC2)O[C@H](CO)[C@@H](O)[C@@H]1O [Example 3, 2′-(2-acetamido-2-deoxy-β-D-glucopyranosyloxy)-4′-bromo-6′-[(5-chloro-2-pyridyl)-carbamoyl]-1-isopropylpiperidine-4-carboxanilide trifluoroacetate]		5.60			
CC(C)N1CCC(C(=O)Nc2c(O[C@@H]3O[C@H](CO)[C@H](O)[C@H](O)[C@H]3O)cc(Br)cc2C(=O)Nc2ccc(Cl)cn2)CC1 [Example 1, trifluoroacetate]	0.295	7.69	extend the coagulation time at low concentration	longer extending action for the coagulation time	
CC(C)N1CCC(C(=O)Nc2c(O)cc(Br)cc2C(=O)Nc2ccc(Cl)cn2)CC1 [Example 19, 4′-bromo-2′-[(5-chloro-2-pyridyl)carbamoyl]-6′-hydroxy-1-isopropylpiperidine-4-carboxanilide hydrochloride]					2.26
COC[C@H]1O[C@@H](Oc2cc(Br)cc(C(=O)Nc3ccc(Cl)cn3)c2NC(=O)C2CCN(C(C)C)CC2)[C@H](O)[C@@H](O)[C@@H]1O [Example 8]	0.137		extend the coagulation time at low concentration		
CC(C)N1CCC(C(=O)Nc2ccc(Cl)cc2C(=O)Nc2ccc(Cl)cn2)CC1 [Control Compound, reference compound]		2.00			

More lines, main results first:

Test on Measurement of Coagulation Time by Human Activated Blood Coagulation Factor X (CT2) (human factor Xa) [µM]	SMILES	Test on Measurement of Coagulation Time in Cynomolgus Monkeys (PT) ([1]; 10 mg/kg per os)	anti-blood coagulation action (extension of coagulation time), in words (human factor Xa)	extending action for the coagulation time compared with control (Example 44 of WO 00/39118) ([1]; same dose as control (10 mg/kg), oral, cynomolgus monkeys)	Test on Measurement of Coagulation Time in Cynomolgus Monkeys (PT) ([1]; 1 mg/kg per os)
0.153	CC(C)N1CCC(C(=O)Nc2c(O)cc(Cl)cc2C(=O)Nc2ccc(Cl)cn2)CC1 [Example 18, 4′-chloro-2′-[(5-chloro-2-pyridyl)carbamoyl]-6′-hydroxy-1-isopropylpiperidine-4-carboxanilide hydrochloride]		extend the coagulation time at low concentration		1.94
0.617	CC(C)N1CCC(CNc2c(O)cc(Cl)cc2C(=O)Nc2ccc(Cl)cn2)CC1 [Example 10]		extend the coagulation time at low concentration		
